Data on 13 compounds can be found in ChEMBL document CHEMBL1201862, “PubChem BioAssay data set” (2004).

Common to all, as to experiment: NCI anticancer screen, dose series, 48 h
The test system of assay [1] is SNB-78.
Assay [2] concerns KM-20L2.
Assay [3] has as its system LXFL 529.
The subject of assay [4] is DMS-273.
The test system of assay [5] is DLD-1.
For assay [6], the system named is XF498.
The test system of assay [7] is RXF 631.
For assay [8], the system named is DMS-114.
Assay [9] has as its system HOP-18.

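Values below derive from 48-hour exposures of cells grown in 96-well plates, with endpoints linearly interpolated between the two concentrations bracketing the appropriate inhibition level. GI50: concentration for 50% inhibition of growth.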 Activity calls are given as the source filed them. Rule as the data show it: active = GI50 up to about 1.1 µM and inactive = higher.

Take `CNC(=O)CN(CC(N)=O)C(N)=O`: the GI50 in assay [1], in assay [2], in assay [3], in assay [4], in assay [5] and in [6] was > 100 µM (inactive) each time. Further, in assay [7], the GI50 was > 100 µM (inactive).

With `CN(C)CCCN1CCc2c([nH]c3ccccc23)C1c1cccnc1` (stereo unspecified), the GI50 in [1], in [2], in assay [3], in assay [4], in assay [5] and in [6] was > 100 µM (inactive) throughout. Further, the GI50 in assay [7] and in [8] was > 100 µM (inactive) each time.

For `NC(=S)N1N=C2c3ccccc3CC[C@@H]2[C@@H]1c1ccccc1`, the GI50 in assay [1] was 28.1 µM (inactive); in assay [2] it was 4.22 µM (inactive); in assay [9] it was 20.8 µM (inactive); in [3], 8.18 µM (inactive); in [4] it was 2.19 µM (inactive); in assay [5] it was 6.5 µM (inactive). For the same compound, the GI50 in assay [7] was 7.85 µM (inactive); in assay [8] it was 2.45 µM (inactive).

As to `CCCCN(CCCC)C(=Nc1ccccc1)N(CCCC)CCCC`, the GI50 in assay [1] was 11.1 µM (inactive); in assay [2], 0.851 µM (active); in assay [9], 1.76 µM (inactive); in assay [3], 5.36 µM (inactive); in assay [4], 4.61 µM (inactive); in assay [5], 6.38 µM (inactive). Besides, the GI50 in [6] was 2.05 µM (inactive); in [7], 10.5 µM (inactive); in assay [8] it was 1.59 µM (inactive).

`CC(C)OCN/C(N)=N\C#N`: the GI50 in [1] is > 100 µM (inactive); in assay [2], > 100 µM (inactive); in assay [9], > 100 µM (inactive); in assay [3] it was > 100 µM (inactive); in assay [4], 49.2 µM (inactive); in assay [5], 59.7 µM (inactive). Further, the GI50 in assay [6], in [7] and in [8] was > 100 µM (inactive) each time.

For `Nc1n/c(=N\c2ccccc2)ss1`, the GI50 in assay [1], in assay [2], in assay [9], in [3], in assay [4] and in [5] was > 100 µM (inactive) each time. For the same compound, the GI50 in assay [6], in assay [7] and in assay [8] was > 100 µM (inactive) in each case.

Consider `O=C(c1ccccc1)C1S(=O)(=O)OCCOS1(=O)=O`, for which the GI50 in [1], in [3], in [4], in [5], in [6] and in [7] was > 100 µM (inactive) each time. Also, the GI50 in assay [8] is > 100 µM (inactive).

On to `CC(=O)OCCOCBr`, for which the GI50 in [2], in [9], in assay [3], in assay [4], in assay [5] and in assay [6] was > 100 µM (inactive) each time. Also, the GI50 in [7] and in assay [8] was > 100 µM (inactive) in each case.

Consider `O=C1C2c3[nH]c4ccccc4c3C3CCCCCCC3C2C(=O)N1c1ccccc1` (stereo unspecified), for which the GI50 in assay [1] was 13.2 µM (inactive); in assay [3], 12.9 µM (inactive); in [4], 11.1 µM (inactive); in [5], > 10 µM (inactive); in [6], 1.92 µM (inactive); in [7], 4.71 µM (inactive). Besides, the GI50 in assay [8] was 4.71 µM (inactive).

Take `CC(=O)OCCC(O[Si](c1ccccc1)(c1ccccc1)C(C)(C)C)C(C)(C)O` (stereo unspecified): the GI50 was 59.4 µM (inactive) in assay [1]; 32.3 µM (inactive) in [2]; 25.2 µM (inactive) in [9]; 42.7 µM (inactive) in assay [3]; 27 µM (inactive) in assay [4]; 29.4 µM (inactive) in assay [6]. For the same compound, the GI50 is 34.3 µM (inactive) in assay [7] and 19.9 µM (inactive) in [8].

On to `COC(=O)/C=C/c1c(CC=C(C)C)ncn1C`, for which the GI50 in [1] was 53.2 µM (inactive); in [2] it was 16.7 µM (inactive); in assay [9], > 100 µM (inactive); in [3] it was 55.1 µM (inactive); in assay [4], 8.38 µM (inactive); in assay [5], 29.8 µM (inactive). In addition, the values for the GI50 in assay [6], in assay [7] and in assay [8] were 41.3 µM (inactive), 59 µM (inactive) and 5.38 µM (inactive), respectively.

In the case of `O=C(CC1(O)C(=O)Nc2ccccc21)c1ccc(Cl)cc1Cl` (stereo unspecified), the GI50 in assay [1], in assay [2], in assay [3], in assay [4], in assay [5] and in assay [6] was > 100 µM (inactive) throughout. Also, the GI50 in assay [7] and in assay [8] was > 100 µM (inactive) each time.

As for `CC(=O)OC1CC[C@@]2(C)C(CC[C@]3(C)C2CC=C2[C@@H]4C(C)[C@H](C)CCC4(C)CCC23C)[C@@]1(C)C(=O)O` (stereo partly specified), the GI50 is 26.5 µM (inactive) in assay [1]; 16.2 µM (inactive) in [2]; 16.3 µM (inactive) in assay [9]; 17.3 µM (inactive) in assay [3]; 21.2 µM (inactive) in [4]; 18.7 µM (inactive) in [5]. Further, the GI50 in [6] was 16.9 µM (inactive); in assay [7], 23.9 µM (inactive); in assay [8], 18.4 µM (inactive).
